Assay results taken from article PMC12377202, “Design, synthesis, and cytotoxic evaluation of quinazoline-based derivatives as VEGER-2 inhibitors: comparative study against EGFR kinase activity, induction of apoptosis, and molecular docking study” (RSC Advances, 2025).

Assays:
Format in all cases: cell-based, human
caspase-9 = assay: Caspase-9 expression level in HepG-2 cells; details: for Caspase-9 ± SE: HepG-2, at IC50 concentrations, control 11.01; for caspase-9 expression level, fold increase: HepG-2, vs control cells
Protocol: (§1) All synthesized compounds were tested at their cytotoxic concentrations in HepG-2 cells for analysis of gene expression levels of apoptotic markers caspase-3, caspase-9, TNF-α, and IL-6 proteins, and only two active compounds were tested for BAX and Bcl-2 proteins.
(§2) through Flow cytometric analysis.
(§3) Pellets were collected again and incubated with
(§4) Total RNA from vehicle-treated
(§5) (Thermo Scientific, USA).
(§6) All experiments were performed in […]

HepG-2 = assay: MTT anti-proliferative assay, HepG-2; details: Homo sapiens, HepG2; for viability at 0.195 µg/mL / cytotoxicity at 0.195 µg/mL: HepG-2, 0.195 ug/ml; for cytotoxicity at 0.195 µg/mL / cytotoxicity at 0.391 µg/mL / cytotoxicity at 0.781 µg/mL / cytotoxicity at 1.563 µg/mL / cytotoxicity at 3.125 µg/mL / cytotoxicity at 6.25 µg/mL / cytotoxicity at 12.5 µg/mL / cytotoxicity at 25 µg/mL: read-out: Toxicity %; for viability at 0.391 µg/mL / cytotoxicity at 0.391 µg/mL: HepG-2, 0.391 ug/ml; for viability at 0.781 µg/mL / cytotoxicity at 0.781 µg/mL: HepG-2, 0.781 ug/ml; for viability at 1.563 µg/mL / cytotoxicity at 1.563 µg/mL: HepG-2, 1.563 ug/ml; for viability at 3.125 µg/mL / cytotoxicity at 3.125 µg/mL: HepG-2, 3.125 ug/ml; for viability at 6.25 µg/mL / cytotoxicity at 6.25 µg/mL: HepG-2, 6.25 ug/ml; for viability at 12.5 µg/mL / cytotoxicity at 12.5 µg/mL: HepG-2, 12.5 ug/ml; for viability at 25 µg/mL / cytotoxicity at 25 µg/mL: HepG-2, 25 ug/ml; for IC50: MTT, HepG-2, read-out: Cytotoxicity against cancer cells IC50 HepG-2
TNF-alpha = TNF-alpha level in HepG-2 cells; details: control 43.48
Protocol: as §1, §2, §3, §4, §5, §6

MCF-7 = assay: MTT anti-proliferative assay, MCF-7; details: Homo sapiens, MCF7; for viability at 0.195 µmol / cytotoxicity at 0.195 µmol: MCF-7, 0.195 umol; for cytotoxicity at 0.195 µmol / cytotoxicity at 0.391 µmol / cytotoxicity at 0.781 µmol / cytotoxicity at 1.563 µmol / cytotoxicity at 3.125 µmol / cytotoxicity at 6.25 µmol / cytotoxicity at 12.5 µmol / cytotoxicity at 25 µmol: read-out: Toxicity %; for viability at 0.391 µmol / cytotoxicity at 0.391 µmol: MCF-7, 0.391 umol; for viability at 0.781 µmol / cytotoxicity at 0.781 µmol: MCF-7, 0.781 umol; for viability at 1.563 µmol / cytotoxicity at 1.563 µmol: MCF-7, 1.563 umol; for viability at 3.125 µmol / cytotoxicity at 3.125 µmol: MCF-7, 3.125 umol; for viability at 6.25 µmol / cytotoxicity at 6.25 µmol: MCF-7, 6.25 umol; for viability at 12.5 µmol / cytotoxicity at 12.5 µmol: MCF-7, 12.5 umol; for viability at 25 µmol / cytotoxicity at 25 µmol: MCF-7, 25 umol; for IC50: MTT, MCF-7, read-out: Cytotoxicity against cancer cells IC50 MCF-7
caspase-3 = assay: Caspase-3 expression level in HepG-2 cells; details: for Caspase-3 ± SE: HepG-2, at IC50 concentrations, control 0.460; for caspase-3 expression level, fold increase: HepG-2, vs control cells
Protocol: as §1, §2, §3, §4, §5, §6

K-562 = assay: MTT anti-proliferative assay, K-562; details: Homo sapiens, K562; for viability at 0.195 µmol / cytotoxicity at 0.195 µmol: K-562, 0.195 umol; for cytotoxicity at 0.195 µmol / cytotoxicity at 0.391 µmol / cytotoxicity at 0.781 µmol / cytotoxicity at 1.563 µmol / cytotoxicity at 3.125 µmol / cytotoxicity at 6.25 µmol / cytotoxicity at 12.5 µmol / cytotoxicity at 25 µmol: read-out: Toxicity %; for viability at 0.391 µmol / cytotoxicity at 0.391 µmol: K-562, 0.391 umol; for viability at 0.781 µmol / cytotoxicity at 0.781 µmol: K-562, 0.781 umol; for viability at 1.563 µmol / cytotoxicity at 1.563 µmol: K-562, 1.563 umol; for viability at 3.125 µmol / cytotoxicity at 3.125 µmol: K-562, 3.125 umol; for viability at 6.25 µmol / cytotoxicity at 6.25 µmol: K-562, 6.25 umol; for viability at 12.5 µmol / cytotoxicity at 12.5 µmol: K-562, 12.5 umol; for viability at 25 µmol / cytotoxicity at 25 µmol: K-562, 25 umol; for IC50: MTT, K-562, read-out: Cytotoxicity against cancer cells IC50 K-562
IL-6R = IL-6R level in HepG-2 cells; details: control 44.10; for IL-6R ± SE: HepG-2, at IC50 concentrations; for IL-6 ±SE: raw data, HepG2
Protocol: as §1, §2, §3, §4, §5, §6

O=C(Cn1cnc2cc([N+](=O)[O-])ccc2c1=O)Nc1ccc(Cl)cc1 [9c, N-(4-Chlorophenyl)-2-(7-nitro-4-oxoquinazolin-3(4H)-yl)acetamide]
Caspase-9 ± SE (caspase-9): 70.03 ± 0.47 ng/L
Caspase-9 ± SE (caspase-9; listed as N2): 70.03 ng/L
caspase-9 expression level, fold increase (caspase-9): 6.37 fold
viability at 0.195 µg/mL (HepG-2): 83.4%
cytotoxicity at 0.195 µg/mL (HepG-2): 16.6%
viability at 0.391 µg/mL (HepG-2): 70.3%
cytotoxicity at 0.391 µg/mL (HepG-2): 29.7%
viability at 0.781 µg/mL (HepG-2): 56.1%
cytotoxicity at 0.781 µg/mL (HepG-2): 43.9%
viability at 1.563 µg/mL (HepG-2): 34.4%
cytotoxicity at 1.563 µg/mL (HepG-2): 65.6%
viability at 3.125 µg/mL (HepG-2): 16.8%
cytotoxicity at 3.125 µg/mL (HepG-2): 83.2%
viability at 6.25 µg/mL (HepG-2): 11.7%
cytotoxicity at 6.25 µg/mL (HepG-2): 88.3%
viability at 12.5 µg/mL (HepG-2): 7.36%
cytotoxicity at 12.5 µg/mL (HepG-2): 92.6%
viability at 25 µg/mL (HepG-2): 6.23%
cytotoxicity at 25 µg/mL (HepG-2): 93.8%
IC50 (HepG-2): 1 ± 0.0049 µM
TNF-alpha ±SE (TNF-alpha; HepG-2, at IC50 concentrations): 16.86 ± 2.39 ng/L
TNF-alpha ±SE (TNF-alpha; raw data, HepG2): 23.47 ng/L
viability at 0.195 µmol (MCF-7): 91.3%
cytotoxicity at 0.195 µmol (MCF-7): 8.66%
viability at 0.391 µmol (MCF-7): 68.1%
cytotoxicity at 0.391 µmol (MCF-7): 31.9%
viability at 0.781 µmol (MCF-7): 43%
cytotoxicity at 0.781 µmol (MCF-7): 57%
viability at 1.563 µmol (MCF-7): 27.7%
cytotoxicity at 1.563 µmol (MCF-7): 72.3%
viability at 3.125 µmol (MCF-7): 15.2%
cytotoxicity at 3.125 µmol (MCF-7): 84.8%
viability at 6.25 µmol (MCF-7): 11.2%
cytotoxicity at 6.25 µmol (MCF-7): 88.8%
viability at 12.5 µmol (MCF-7): 8.44%
cytotoxicity at 12.5 µmol (MCF-7): 91.6%
viability at 25 µmol (MCF-7): 6.82%
cytotoxicity at 25 µmol (MCF-7): 93.2%
IC50 (MCF-7): 0.6724 ± 0.0049 µM
Caspase-3 ± SE (caspase-3): 1.77 ± 0.08 ng/mL
Caspase-3 ± SE (caspase-3; listed as N2): 1.77 ng/mL
caspase-3 expression level, fold increase (caspase-3): 3.85 fold
viability at 0.195 µmol (K-562): 80.6%
cytotoxicity at 0.195 µmol (K-562): 19.4%
viability at 0.391 µmol (K-562): 60%
cytotoxicity at 0.391 µmol (K-562): 40%
viability at 0.781 µmol (K-562): 33.6%
cytotoxicity at 0.781 µmol (K-562): 66.4%
viability at 1.563 µmol (K-562): 22.3%
cytotoxicity at 1.563 µmol (K-562): 77.7%
viability at 3.125 µmol (K-562): 11%
cytotoxicity at 3.125 µmol (K-562): 89%
viability at 6.25 µmol (K-562): 8.29%
cytotoxicity at 6.25 µmol (K-562): 91.7%
viability at 12.5 µmol (K-562): 7.43%
cytotoxicity at 12.5 µmol (K-562): 92.6%
viability at 25 µmol (K-562): 7.02%
cytotoxicity at 25 µmol (K-562): 93%
IC50 (K-562): 0.5388 ± 0.0017 µM
IL-6R ± SE (IL-6R): 11.87 ± 0.80 ng/L
IL-6 ±SE (IL-6R): 24.59 ng/L

O=C(Cn1cnc2cc([N+](=O)[O-])ccc2c1=O)Nc1ccc(F)c(Cl)c1 [9e, N-(3-Chloro-4-fluorophenyl)-2-(7-nitro-4-oxoquinazolin-3(4H)-yl)acetamide]
Caspase-9 ± SE (caspase-9): 25.20 ± 1.27 ng/L
Caspase-9 ± SE (caspase-9; listed as N4): 25.20 ng/L
caspase-9 expression level, fold increase (caspase-9): 2.29 fold
viability at 0.195 µg/mL (HepG-2): 87.5%
cytotoxicity at 0.195 µg/mL (HepG-2): 12.5%
viability at 0.391 µg/mL (HepG-2): 63.9%
cytotoxicity at 0.391 µg/mL (HepG-2): 36.1%
viability at 0.781 µg/mL (HepG-2): 55.2%
cytotoxicity at 0.781 µg/mL (HepG-2): 44.8%
viability at 1.563 µg/mL (HepG-2): 49.6%
cytotoxicity at 1.563 µg/mL (HepG-2): 50.4%
viability at 3.125 µg/mL (HepG-2): 25.9%
cytotoxicity at 3.125 µg/mL (HepG-2): 74.1%
viability at 6.25 µg/mL (HepG-2): 16.3%
cytotoxicity at 6.25 µg/mL (HepG-2): 83.7%
viability at 12.5 µg/mL (HepG-2): 8.39%
cytotoxicity at 12.5 µg/mL (HepG-2): 91.6%
viability at 25 µg/mL (HepG-2): 6.85%
cytotoxicity at 25 µg/mL (HepG-2): 93.2%
IC50 (HepG-2): 1.51 ± 0.002 µM
TNF-alpha ±SE (TNF-alpha; HepG-2, at IC50 concentrations): 34.27 ± 1.94 ng/L
TNF-alpha ±SE (TNF-alpha; raw data, HepG2): 32.07 ng/L
viability at 0.195 µmol (MCF-7): 54.8%
cytotoxicity at 0.195 µmol (MCF-7): 45.2%
viability at 0.391 µmol (MCF-7): 29.1%
cytotoxicity at 0.391 µmol (MCF-7): 70.9%
viability at 0.781 µmol (MCF-7): 20.9%
cytotoxicity at 0.781 µmol (MCF-7): 79.1%
viability at 1.563 µmol (MCF-7): 13.7%
cytotoxicity at 1.563 µmol (MCF-7): 86.3%
viability at 3.125 µmol (MCF-7): 9.89%
cytotoxicity at 3.125 µmol (MCF-7): 90.1%
viability at 6.25 µmol (MCF-7): 9.23%
cytotoxicity at 6.25 µmol (MCF-7): 90.8%
viability at 12.5 µmol (MCF-7): 8.22%
cytotoxicity at 12.5 µmol (MCF-7): 91.8%
viability at 25 µmol (MCF-7): 6.51%
cytotoxicity at 25 µmol (MCF-7): 93.5%
IC50 (MCF-7): 0.2314 ± 0.0023 µM
Caspase-3 ± SE (caspase-3): 0.77 ± 0.069 ng/mL
Caspase-3 ± SE (caspase-3; listed as N4): 0.77 ng/mL
caspase-3 expression level, fold increase (caspase-3): 1.6 fold
viability at 0.195 µmol (K-562): 60.6%
cytotoxicity at 0.195 µmol (K-562): 39.4%
viability at 0.391 µmol (K-562): 47%
cytotoxicity at 0.391 µmol (K-562): 53%
viability at 0.781 µmol (K-562): 26.6%
cytotoxicity at 0.781 µmol (K-562): 73.4%
viability at 1.563 µmol (K-562): 19%
cytotoxicity at 1.563 µmol (K-562): 81%
viability at 3.125 µmol (K-562): 13.7%
cytotoxicity at 3.125 µmol (K-562): 86.3%
viability at 6.25 µmol (K-562): 10.8%
cytotoxicity at 6.25 µmol (K-562): 89.2%
viability at 12.5 µmol (K-562): 8.13%
cytotoxicity at 12.5 µmol (K-562): 91.9%
viability at 25 µmol (K-562): 6.53%
cytotoxicity at 25 µmol (K-562): 93.5%
IC50 (K-562): 0.3469 ± 0.0029 µM
IL-6R ± SE (IL-6R): 25.25 ± 0.16 ng/L
IL-6 ±SE (IL-6R): 11.93 ng/L
